In patent US20140271831A1, “RACECADOTRIL LIQUID COMPOSITIONS” (McNeil-PPC, Inc., priority 2013, published 2014):

Experiments:
Type in all cases: physicochemical
[1] = Solubility of racecadotril in water, buffer and Beta-HPCD (statements)
[2] = Stability of Racecadotril in Beta-Hydroxypropyl-Cyclodextrin (Beta-HPCD)
Method: (§1) Formulations of racecadotril in beta-hydroxypropyl-cyclodextrin were evaluated (Table 4). • 1. Pipet 1 mL of Racecadotril solution into a 100 mL volumetric flask (V.F.) • 2. Dilute to volume with the same buffer used in the solution preparation. • 3. […] Parameters may be modified to optimize chromatography. • The assay of Racecadotril is determined by using the external standard injected. The degradation products levels are determined by % peak area relative to the Racecadotril peak. [table] [table] Mobil Phase A: Phosphate buffer, pH 2.5 (Buffer prep: dissolve 1 g of potassium dihydrogen phosphate in water, adjust to pH 2.5 with phosphoric acid, dilute to 1000 mL with water) Mobil Phase B: 100% Acetonitrile

[3] = Stability of Racecadotril in Buffer Solutions
Method: as §1, with “For comparative purposes, the stability” for “Formulations”, “racecadotril was analyzed when solubilized” for “racecadotril”, “pH 4.5 Acetate buffer and pH 4.5 Citrate buffer” for “beta-hydroxypropyl-cyclodextrin were evaluated”, “3).” for “4).”

[4] = Stability of Racecadotril in Water
Method: as §1, with “For comparative purposes, the stability” for “Formulations”, “was tested at room temperature and at 40° C.” for “in beta-hydroxypropyl-cyclodextrin were evaluated (Table 4).”

solubility in buffer compared with water [1]: more soluble in buffer than in water
solubility utilizing the Beta-HPCD compared with buffers alone [1]: higher solubility
Racecadotril in Beta-HPCD at 40° C. (%) with pH Adjustment to 4.5, Acetate Buffer ([2]; 1 Week): 96.16%
Racecadotril in Beta-HPCD at 40° C. (%) with pH Adjustment to 4.5, Citrate Buffer ([2]; 1 Week): 96.20%
Racecadotril in Beta-HPCD at 40° C. (%) without pH Adjustment, Acetate Buffer ([2]; 1 Week): 94.1%
Racecadotril in Beta-HPCD at 40° C. (%) without pH Adjustment, Citrate Buffer ([2]; 1 Week): 93.6%
Racecadotril in Beta-HPCD at 40° C. (%) with pH Adjustment to 4.5, Acetate Buffer ([2]; 2 Weeks): 92.7%
Racecadotril in Beta-HPCD at 40° C. (%) with pH Adjustment to 4.5, Citrate Buffer ([2]; 2 Weeks): 92.91%
Racecadotril in Beta-HPCD at 40° C. (%) with pH Adjustment to 4.5, Acetate Buffer ([2]; 3 Weeks): 88.95%
Racecadotril in Beta-HPCD at 40° C. (%) with pH Adjustment to 4.5, Citrate Buffer ([2]; 3 Weeks): 89.59%
Racecadotril in Beta-HPCD at 40° C. (%) with pH Adjustment to 4.5, Acetate Buffer ([2]; 4 Weeks): 85.84%
Racecadotril in Beta-HPCD at 40° C. (%) with pH Adjustment to 4.5, Citrate Buffer ([2]; 4 Weeks): 86.80%
Racecadotril in Beta-HPCD at 40° C. (%) with pH Adjustment to 4.5, Acetate Buffer ([2]; 12 Hours): 98.07%
Racecadotril in Beta-HPCD at 40° C. (%) with pH Adjustment to 4.5, Citrate Buffer ([2]; 12 Hours): 98.12%
Racecadotril in Beta-HPCD at 40° C. (%) without pH Adjustment, Acetate Buffer ([2]; 12 Hours): 96.9%
Racecadotril in Beta-HPCD at 40° C. (%) without pH Adjustment, Citrate Buffer ([2]; 12 Hours): 96.9%
Racecadotril in Beta-HPCD at 40° C. (%) with pH Adjustment to 4.5, Acetate Buffer ([2]; Initial): 99.58%
Racecadotril in Beta-HPCD at 40° C. (%) with pH Adjustment to 4.5, Citrate Buffer ([2]; Initial): 99.58%
Racecadotril in Beta-HPCD at 40° C. (%) without pH Adjustment, Acetate Buffer ([2]; Initial): 99.5%
Racecadotril in Beta-HPCD at 40° C. (%) without pH Adjustment, Citrate Buffer ([2]; Initial): 99.3%
Racecadotril in pH 4.5 Acetate Buffer at 40° C. (% Racecadotril) ([3]; 1 Week): 96.7%
Racecadotril in pH 4.5 Citrate Buffer at 40° C. (% Racecadotril) ([3]; 1 Week): 95.3%
Racecadotril in pH 4.5 Acetate Buffer at 40° C. (% Racecadotril) ([3]; 2 Weeks): 93.3%
Racecadotril in pH 4.5 Citrate Buffer at 40° C. (% Racecadotril) ([3]; 2 Weeks): 91.2%
Racecadotril in pH 4.5 Acetate Buffer at 40° C. (% Racecadotril) ([3]; 3 Weeks): 91.5%
Racecadotril in pH 4.5 Citrate Buffer at 40° C. (% Racecadotril) ([3]; 3 Weeks): 89.0%
Racecadotril in pH 4.5 Acetate Buffer at 40° C. (% Racecadotril) ([3]; 4 Weeks): 88.0%
Racecadotril in pH 4.5 Citrate Buffer at 40° C. (% Racecadotril) ([3]; 4 Weeks): 85.4%
Racecadotril in pH 4.5 Acetate Buffer at 40° C. (% Racecadotril) ([3]; 12 Hours): 99.69%
Racecadotril in pH 4.5 Citrate Buffer at 40° C. (% Racecadotril) ([3]; 12 Hours): 99.63%
stability in buffer compared with water ([3]; 40° C. and 4 weeks): more stable in a buffer than in water
Racecadotril in pH 4.5 Acetate Buffer at 40° C. (% Racecadotril) ([3]; Initial): 99.86%
Racecadotril in pH 4.5 Citrate Buffer at 40° C. (% Racecadotril) ([3]; Initial): 99.74%
Racecadotril (%) in Water at 40° C. ([4]; 1 Week): 0%
Racecadotril (%) in Water at Room Temperature ([4]; 1 Week): 1.0%
Racecadotril (%) in Water at 40° C. ([4]; 2 Weeks): 0.2%
Racecadotril (%) in Water at Room Temperature ([4]; 2 Weeks): 0.0%
Racecadotril (%) in Water at Room Temperature ([4]; 12 Hours): 44.9%
Racecadotril (%) in Water at 40° C. ([4]; Initial): 78.88%
Racecadotril (%) in Water at Room Temperature ([4]; Initial): 74.88%
racecadotril present ([4]; in water, at 1 week): less than 1%
stability of racecadotril in water ([4]; room temperature and 40° C., after 12 hours): unstable
Structure (SMILES): CC(=O)SCC(Cc1ccccc1)C(=O)NCC(=O)OCc1ccccc1 (racemic) [Racecadotril]
stability in Beta-HPCD compared with buffers alone [2]: stability is similar to that in buffers alone
